Converted amounts (≈) assume the structure as drawn.
Columns and labels:
Escherichia coli [1] = experiment: Antimicrobial activity against Escherichia coli JW55031 TolC mutant assessed as reduction in microbial growth incubated for 18 to 20 hrs by broth microdilution method
Escherichia coli [2] = experiment: Synergistic antibacterial activity against wild type Escherichia coli BW25113 in presence of 0.25 times MIC of colistin incubated for 18 to 20 hrs by broth microdilution method; format: functional; settings: time 18-20 hrs
Klebsiella pneumoniae [3] = experiment: Antibacterial activity against Klebsiella pneumoniae ATCC 1706 incubated for 18 to 20 hrs by broth microdilution method; format: functional; settings: time 18-20 hrs
Acinetobacter baumannii [4] = experiment: Synergistic antibacterial activity against Acinetobacter baumannii ATCC 19606 in presence of 0.25 times MIC of colistin incubated for 18 to 20 hrs by broth microdilution method; format: functional; settings: time 18-20 hrs
Acinetobacter baumannii [5] = experiment: Antibacterial activity against Acinetobacter baumannii ATCC 19606 incubated for 18 to 20 hrs by broth microdilution method; format: functional; settings: time 18-20 hrs
Escherichia coli [6] = experiment: Antibacterial activity against Escherichia coli ATCC 25922 incubated for 18 to 20 hrs by broth microdilution method; format: functional; settings: time 18-20 hrs
Pseudomonas aeruginosa [7] = experiment: Antibacterial activity against Pseudomonas aeruginosa ATCC 15442 incubated for 18 to 20 hrs by broth microdilution method; format: functional; settings: time 18-20 hrs
Escherichia coli [8] = experiment: Synergistic antibacterial activity against Escherichia coli ATCC 25922 in presence of 0.25 times MIC of colistin incubated for 18 to 20 hrs by broth microdilution method; format: functional; settings: time 18-20 hrs
Pseudomonas aeruginosa [9] = experiment: Synergistic antibacterial activity against Pseudomonas aeruginosa ATCC 15442 in presence of 0.25 times MIC of colistin incubated for 18 to 20 hrs by broth microdilution method; format: functional; settings: time 18-20 hrs
Escherichia coli [10] = experiment: Antibacterial activity against wild type Escherichia coli BW25113 incubated for 18 to 20 hrs by broth microdilution method; format: functional; settings: time 18-20 hrs
Klebsiella pneumoniae [11] = experiment: Synergistic antibacterial activity against Klebsiella pneumoniae ATCC 1706 in presence of 0.25 times MIC of colistin incubated for 18 to 20 hrs by broth microdilution method; format: functional; settings: time 18-20 hrs
Caco-2 = experiment: Cytotoxicity against human Caco-2 cells assessed as reduction in cell viability incubated for 2 hrs by MTS assay; format: cell-based; settings: caco-2, 2 h
Vero = experiment: Cytotoxicity against African green monkey Vero cells assessed as reduction in cell viability incubated for 2 hrs by MTS assay; format: cell-based; settings: chlorocebus sabaeus

SMILES: c1ccc(Cn2c(-c3ccccc3)nc3ccccc32)cc1
- MIC (Escherichia coli [1]): 16 µg/mL

SMILES: CC(=O)NC[C@H]1CN(c2ccc(N3CCOCC3)c(F)c2)C(=O)O1 [LINEZOLID]
- MIC (Escherichia coli [2]): 128 µg/mL
- MIC (Klebsiella pneumoniae [3]): > 128 µg/mL
- MIC (Acinetobacter baumannii [4]): > 128 µg/mL
- MIC (Acinetobacter baumannii [5]): > 128 µg/mL
- MIC (Escherichia coli [6]): 128 µg/mL (≈ 379 µM)
- MIC (Pseudomonas aeruginosa [7]): > 128 µg/mL
- MIC (Escherichia coli [8]): 128 µg/mL
- MIC (Pseudomonas aeruginosa [9]): > 128 µg/mL
- MIC (Escherichia coli [10]): 128 µg/mL (≈ 379 µM)
- MIC (Escherichia coli [1]): 8 µg/mL
- MIC (Klebsiella pneumoniae [11]): > 128 µg/mL

SMILES: CS(=O)(=O)Nc1cccc(-c2nc3ccccc3n2Cc2ccc(Cl)cc2)c1
- MIC (Escherichia coli [1]): 8 µg/mL

SMILES: CS(=O)(=O)Nc1cccc(-c2nc3ccccc3n2Cc2ccc(C(F)(F)F)cc2)c1
- MIC (Escherichia coli [1]): 16 µg/mL

SMILES: Nc1cccc(-c2nc3ccccc3n2Cc2ccc(C(F)(F)F)cc2)c1
- MIC (Escherichia coli [1]): 8 µg/mL

SMILES: CS(=O)(=O)Nc1cccc(-c2nc3ccccc3n2Cc2cccc(F)c2)c1
- MIC (Escherichia coli [1]): 64 µg/mL

SMILES: Cc1ccc(Cn2c(-c3cccc([N+](=O)[O-])c3)nc3ccccc32)cc1
- MIC (Escherichia coli [1]): > 128 µg/mL

SMILES: Cc1ccc(Cn2c(-c3ccc(Cl)cc3)nc3ccccc32)cc1
- MIC (Escherichia coli [1]): > 128 µg/mL

SMILES: CS(=O)(=O)Nc1cccc(-c2nc3ccccc3n2Cc2cccc(C#N)c2)c1
- MIC (Escherichia coli [1]): > 128 µg/mL

SMILES: CS(=O)(=O)Nc1cccc(-c2nc3ccccc3n2Cc2ccc(Br)cc2)c1
- MIC (Escherichia coli [1]): 4 µg/mL

SMILES: CS(=O)(=O)Nc1cccc(-c2nc3ccccc3n2Cc2cccc(Cl)c2)c1
- MIC (Escherichia coli [1]): 16 µg/mL

SMILES: Cc1ccc(Cn2c(-c3ccc(OC(F)(F)F)cc3)nc3ccccc32)cc1
- MIC (Escherichia coli [1]): > 128 µg/mL

SMILES: CS(=O)(=O)Nc1cccc(-c2nc3ccccc3n2Cc2ccc(Cl)cc2Cl)c1
- MIC (Escherichia coli [1]): 8 µg/mL

SMILES: CS(=O)(=O)Nc1cccc(-c2nc3ccccc3n2Cc2ccc(F)cc2)c1
- MIC (Escherichia coli [1]): 32 µg/mL

SMILES: Cc1ccc(Cn2c(-c3ccccc3)nc3ccccc32)cc1
- MIC (Escherichia coli [1]): 8 µg/mL

SMILES: Cc1ccc(Cn2c(-c3cccc(C(F)(F)F)c3)nc3ccccc32)cc1
- MIC (Escherichia coli [1]): > 128 µg/mL

SMILES: Cc1ccc(Cn2c(-c3ccc(NS(C)(=O)=O)cc3)nc3ccccc32)cc1
- MIC (Escherichia coli [1]): > 128 µg/mL

SMILES: CS(=O)(=O)Nc1cccc(-c2nc3ccccc3n2Cc2ccc(C#N)cc2)c1
- MIC (Escherichia coli [1]): 64 µg/mL

SMILES: COc1ccc(-c2nc3ccccc3n2Cc2ccc(C)cc2)cc1
- MIC (Escherichia coli [1]): > 128 µg/mL

SMILES: CS(=O)(=O)Nc1cccc(-c2nc3ccccc3n2Cc2cccc3ccccc23)c1
- MIC (Escherichia coli [1]): > 128 µg/mL

SMILES: Cc1ccc(Cn2c(-c3ccc(C#N)cc3)nc3ccccc32)cc1
- MIC (Escherichia coli [1]): > 128 µg/mL

SMILES: CS(=O)(=O)Nc1cccc(-c2nc3ccccc3n2Cc2ccc(OC(F)(F)F)cc2)c1
- MIC (Escherichia coli [1]): > 128 µg/mL

SMILES: CC(=O)Nc1cccc(-c2nc3ccccc3n2Cc2ccc(Cl)cc2)c1
- MIC (Escherichia coli [1]): > 128 µg/mL

SMILES: Cc1cccc(Cn2c(-c3cccc(NS(C)(=O)=O)c3)nc3ccccc32)c1
- MIC (Escherichia coli [1]): 16 µg/mL

SMILES: Cc1ccc(Cn2c(-c3cccc(N)c3)nc3ccccc32)cc1
- MIC (Escherichia coli [1]): 4 µg/mL

SMILES: Cc1ccc(Cn2c(-c3ccc(C(F)(F)F)cc3)nc3ccccc32)cc1
- MIC (Escherichia coli [1]): 128 µg/mL

SMILES: FC(F)(F)c1ccc(Cn2c(-c3ccccc3)nc3ccccc32)cc1
- MIC (Escherichia coli [1]): 8 µg/mL

SMILES: Cc1ccc(Cn2c(-c3cccc(C#N)c3)nc3ccccc32)cc1
- MIC (Escherichia coli [1]): 16 µg/mL

SMILES: CCCCCCCCCC(=O)N[C@@H](Cc1c[nH]c2ccccc12)C(=O)N[C@H](CC(N)=O)C(=O)N[C@@H](CC(=O)O)C(=O)N[C@@H]1C(=O)NCC(=O)N[C@@H](CCCN)C(=O)N[C@@H](CC(=O)O)C(=O)N[C@H](C)C(=O)N[C@@H](CC(=O)O)C(=O)NCC(=O)N[C@H](CO)C(=O)N[C@@H]([C@H](C)CC(=O)O)C(=O)N[C@@H](CC(=O)c2ccccc2N)C(=O)O[C@@H]1C
- MIC (Escherichia coli [2]): > 128 µg/mL
- MIC (Klebsiella pneumoniae [3]): > 128 µg/mL
- MIC (Acinetobacter baumannii [4]): > 128 µg/mL
- MIC (Acinetobacter baumannii [5]): > 128 µg/mL
- MIC (Escherichia coli [6]): > 128 µg/mL
- MIC (Pseudomonas aeruginosa [7]): > 128 µg/mL
- MIC (Escherichia coli [8]): > 128 µg/mL
- MIC (Pseudomonas aeruginosa [9]): > 128 µg/mL
- MIC (Escherichia coli [10]): > 128 µg/mL
- MIC (Klebsiella pneumoniae [11]): > 128 µg/mL

SMILES: CS(=O)(=O)Nc1cccc(-c2nc3ccccc3n2Cc2ccc(Cl)c(Cl)c2)c1
- MIC (Escherichia coli [1]): 8 µg/mL

SMILES: CC(=O)Nc1cccc(-c2nc3ccccc3n2Cc2ccc(C)cc2)c1
- MIC (Escherichia coli [1]): > 128 µg/mL

SMILES: CC[C@H]1OC(=O)[C@H](C)[C@@H](O[C@H]2C[C@@](C)(OC)[C@@H](O)[C@H](C)O2)[C@H](C)[C@@H](O[C@@H]2O[C@H](C)C[C@H](N(C)C)[C@H]2O)[C@](C)(O)C[C@@H](C)C(=O)[C@H](C)[C@@H](O)[C@]1(C)O [ERYTHROMYCIN]
- MIC (Escherichia coli [2]): 1 µg/mL
- MIC (Klebsiella pneumoniae [3]): 64 µg/mL (≈ 87.2 µM)
- MIC (Acinetobacter baumannii [4]): 0.5 µg/mL
- MIC (Acinetobacter baumannii [5]): 16 µg/mL (≈ 21.8 µM)
- MIC (Escherichia coli [6]): 16 µg/mL (≈ 21.8 µM)
- MIC (Pseudomonas aeruginosa [7]): 64 µg/mL (≈ 87.2 µM)
- MIC (Escherichia coli [8]): 1 µg/mL
- MIC (Pseudomonas aeruginosa [9]): 2 µg/mL
- MIC (Escherichia coli [10]): 16 µg/mL (≈ 21.8 µM)
- MIC (Klebsiella pneumoniae [11]): 2 µg/mL

SMILES: Cc1ccc(Cn2c(-c3cccc(NS(C)(=O)=O)c3)nc3ccccc32)cc1
- MIC (Escherichia coli [2]): 16 µg/mL
- MIC (Klebsiella pneumoniae [3]): > 128 µg/mL
- MIC (Acinetobacter baumannii [4]): 8 µg/mL
- Activity (Caco-2): Non-Toxic
- MIC (Acinetobacter baumannii [5]): > 128 µg/mL
- MIC (Escherichia coli [6]): > 128 µg/mL
- MIC (Pseudomonas aeruginosa [7]): > 128 µg/mL
- MIC (Escherichia coli [8]): 16 µg/mL
- MIC (Pseudomonas aeruginosa [9]): 16 µg/mL
- MIC (Escherichia coli [10]): > 128 µg/mL
- MIC (Escherichia coli [1]): 2 µg/mL
- MIC (Klebsiella pneumoniae [11]): 8 µg/mL
- Activity (Vero): Non-Toxic

SMILES: CS(=O)(=O)Nc1cccc(-c2nc3ccccc3n2CC2CCCCC2)c1
- MIC (Escherichia coli [1]): 16 µg/mL

SMILES: Nc1cccc(-c2nc3ccccc3n2Cc2ccc(Cl)c(Cl)c2)c1
- MIC (Escherichia coli [1]): 4 µg/mL

SMILES: CS(=O)(=O)Nc1cccc(-c2nc3ccccc3n2Cc2ccccc2)c1
- MIC (Escherichia coli [1]): 16 µg/mL

From ChEMBL document CHEMBL4680116, “Development of benzimidazole-based derivatives as antimicrobial agents and their synergistic effect with colistin against gram-negative bacteria” (Eur J Med Chem, 2020)
